Target: Complement factor D (Homo sapiens, UniProt P00746)
Test: Factor D Assay
Description: Human factor D (purified from human serum, Complement Technology, Inc.) at 80 nM final concentration is incubated with test compound at various concentrations for 5 minutes at room temperature in 50 mM Tris, 1M NaCl, pH 7.5. A synthetic substrate Z-L-Lys-SBz1 and DTNB (Ellman's reagent) are added to final concentrations of 100 μM each. The increase in color is recorded at OD405 nm in a microplate in kinetic mode over 30 minutes with 30 second time points in a […]. IC50 values are calculated by non-linear regression from the percentage of inhibition of complement factor D activity as a function of test compound concentration.

Chain of Complement factor D (P00746 whole entry): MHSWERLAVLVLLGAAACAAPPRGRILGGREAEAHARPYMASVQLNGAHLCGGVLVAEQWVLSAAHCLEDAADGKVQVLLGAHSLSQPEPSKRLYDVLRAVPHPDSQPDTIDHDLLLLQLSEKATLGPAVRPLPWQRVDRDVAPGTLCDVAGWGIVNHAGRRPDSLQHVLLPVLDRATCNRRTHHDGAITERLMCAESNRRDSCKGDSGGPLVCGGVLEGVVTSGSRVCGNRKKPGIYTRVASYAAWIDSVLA

SMILES: CC(=O)c1cn(CC(=O)N2C[C@H](F)C[C@H]2C(=O)Nc2cccc(-c3ccccc3Cl)c2F)c2ccc(N(COC(=O)C(C)(C)C)c3cncnc3)cc12 [US9598446, Compound 15]
- IC50: in the range around 5.5 µM

Source: BindingDB's records for patent US9598446 (Achillion Pharmaceuticals, 2017)
